{
  "source": "patent US6818407B2",
  "about": "“Anti-endotoxic antimicrobial cationic peptides and methods of use therfor” (priority 1998, dated 2004)",
  "key": {"[1]": {"tested_on": "Pseudomonas aeruginosa wild type (K799)", "type": "cell-based", "settings": "Mueller Hinton Broth", "method": "(§1) The biological activity of the peptides can be determined by standard methods known to those of skill in the art, such as Aminimal inhibitory concentration (MIC)≅ assay described in the present examples, whereby the lowest concentration at which no change in OD is observed for a given period of time is recorded as MIC. Alternatively, Afractional inhibitory concentration (FIC)≅ is also useful for determination of synergy between the peptides of the invention, or the peptides in combination with known antibiotics. FICs are performed by checkerboard titrations of peptides in one dimension of a microtiter plate, and of antibiotics in the other dimension, for example. The FIC is calculated by looking at the impact of one antibiotic on the MIC of the other and vice versa. […] Preferably, an FIC of less than 0.5 is obtained for synergism. As used herein, FIC can be determined as follows: [formula]\n(§2) These peptides varied in activity (Table 11), however, the C-terminally capped pleurocidin especially and its N-terminally capped lysine derivative had much better activities against a variety of bacteria including Vibrio anguillarum (Va), Aeromonas salmonicida (As), Staphylococcus epidermidis (C621), Salmonella typhimurium wild type (C587) and phoP phoQ mutant (C610), and Pseudomonas aeruginosa wild type (K799) and outer membrane barrier altered (Z61). The antimicrobial peptide CEME, a fusion peptide made from portions of an insect defensin ceropin A and the bee venom peptide melittin (Piers and Hancock, Mol. Microbiol., 12:951-8, 1994), as well as the known antibiotics polymyxin B and gentamicin were used as controls. Replacing the pleurocidin N-terminus with the dermaseptin N-terminus had no effect. Replacing pleurocidin N-terminus with the ceratoxin N-terminus reduced activity. […] Amidating the C-terminus improved antimicrobial activity. Replacing the pleurocidin C-terminus with the misgurin C-terminus had no effect.\n(§3) Bacteria included Vibrio anguillarum (Va), Aeromonas salmonicida (As), Staphylococcus epidermidis (C621), Salmonella typhimurium wild type (C587) and phoP phoQ mutant (C6 10), and Pseudomonas aeruginosa wild type (K799) and outer membrane barrier altered (Z61)."}, "Vibrio anguillarum (Va)": {"tested_on": "Vibrio anguillarum (Va)", "type": "cell-based", "settings": "Mueller Hinton Broth", "method": "as §1, §2, §3"}, "[2]": {"tested_on": "Salmonella typhimurium wild type (C587)", "type": "cell-based", "settings": "Mueller Hinton Broth", "method": "as §1, §2, §3"}, "[3]": {"tested_on": "Aeromonas salmonicida (As)", "type": "cell-based", "settings": "Mueller Hinton Broth", "method": "as §1, §2, §3"}, "[4]": {"tested_on": "Salmonella typhimurium phoP phoQ mutant (C610)", "type": "cell-based", "settings": "Mueller Hinton Broth", "method": "as §1, §2, §3"}, "[5]": {"tested_on": "Staphylococcus epidermidis (C621)", "type": "cell-based", "settings": "Mueller Hinton Broth", "method": "as §1, §2, §3"}, "[6]": {"tested_on": "Pseudomonas aeruginosa outer membrane barrier altered (Z61)", "type": "cell-based", "settings": "Mueller Hinton Broth", "method": "as §1, §2, §3"}, "V. anguillarum": {"tested_on": "V. anguillarum", "test": "Protection of coho salmon, peptide delivered constantly by intraperitoneal mini-osmotic pump", "type": "in vivo, juvenile coho salmon", "settings": "P-CN osmotic pump, 19 fish; for Accumulated Mortalities: 30 days, saline pump control 75%, bacteria alone 67%", "method": "Constant delivery of peptide P-CN using intraperitoneal mini-osmotic pumps was carried out. Briefly, juvenile coho salmon were divided into three treatment groups: A. Bacterial injection alone (12 fish). B. Fish saline osmotic pump and bacterial injection (12 fish). C. A combination of P-CN osmotic pump and bacterial injection (19 fish). The fish were anaesthetized and implanted (peritoneal cavity) with mini-osmotic pumps having a pumping rate of 0.13 µl/hour. Heaters were placed in the tanks to keep the water temperature between 12 and 13° C. Pumps were filled with concentrated P-CN to deliver approximately […] peptide to fish over a 30-day period. Twelve days after pump implantation, the fish received intraperitoneal injections of V. anguillarum ([…]). Mortalities were first noticed on day 3 for the group injected with bacteria alone and on day 5 for the group which received saline osmotic pumps as well as bacterial injections. However, there was no significant difference in mortality between the bacterial injection alone group and the saline osmotic pump group (67% vs. 75%). Mortalities were delayed for the P-CN osmotic pump group. The P-CN osmotic pump group had only one fish die on day 6 over the 30 days experiments with an accumulated mortality of 5%. […] Furthermore, since cationic peptides are not effective in a single treatment and constant administration is necessary, this argues for the potential success of transgenic fish expressing peptide P-CN.\nFish loss from disease is a significant problem in aquaculture worldwide. However, expression of natural cationic peptide genes in fish could increase disease resistance because of continual cellular production of the antimicrobial peptides. In order to choose optimal peptides for transgenic fish, the antimicrobial activities of some cationic peptides were determined by testing minimum inhibitory concentrations (MICs) in vitro. […] The in vivo effect of CEME was examined by intraperitoneal injection of the peptide along with V. anguillarum into juvenile coho salmon. Fish in the bacteria alone control group had 60% mortality, while fish receiving peptide and bacteria injections had 82% mortality. […] Therefore, constant delivery of CEME and Pleurocidin-CN using intraperitoneal mini-osmotic pumps were carried out. Twelve days after pump implantation, the fish received intraperitoneal injections of V. anguillarum. The CEME and pleurocidin-CN pump group had longer survival time and lower mortalities than the control groups (50% Vs. 13%, and 75% Vs. 5%, respectively). Indolicidin transgenic cutthroat trout were made using a construct including an MT promoter, growth hormone signal, pre-region, indolicidin, and terminator. […]"}},
  "note": "Ends that are not written are not given here.",
  "data": [
    {"substance": "GWGSFFKKAAHVGKHVGKAALTHYL-NH2 [P-CN]", "values": [
      {"measurement": "MIC K799", "setting": "[1]", "result": 8, "unit": "µg/mL"},
      {"measurement": "MIC Va", "setting": "Vibrio anguillarum (Va)", "result": 2, "unit": "µg/mL"},
      {"measurement": "MIC C587", "setting": "[2]", "result": 4, "unit": "µg/mL"},
      {"measurement": "MIC As", "setting": "[3]", "result": 1, "unit": "µg/mL"},
      {"measurement": "MIC C610", "setting": "[4]", "result": "<0.5", "unit": "µg/mL"},
      {"measurement": "MIC C621", "setting": "[5]", "result": 4, "unit": "µg/mL"},
      {"measurement": "MIC Z61", "setting": "[6]", "result": 4, "unit": "µg/mL"},
      {"measurement": "Accumulated Mortalities", "setting": "V. anguillarum", "result": 5, "unit": "%"},
      {"measurement": "Accumulated Mortalities", "setting": "V. anguillarum; listed as pleurocidin-CN", "result": 5, "unit": "%"},
      {"measurement": "Mortalities (fish died on the day)", "setting": "V. anguillarum; day 6 after V. anguillarum challenge", "result": 1}
    ]}
  ]
}
